Assay results from patent publication US12428406B2 (PMV Pharmaceuticals, Inc., priority 2019, dated 2025).

The compounds below were run against T1, p53 Y220C (Homo sapiens, UniProt P04637, Y220C) (assay: In vitro DNA binding activity assay (HTRF / TR-FRET): stabilization of p53 Y220C and increase of its DNA binding activity). Details: recombinant His-tagged p53 Y220C DNA binding domain (aa 94-312), biotin-labeled consensus DNA, incubated at 27° C. or 29° C. for 60 min.
T1 construct: The recombinant protein was a truncation mutant containing only amino acids 94-312 of p53; made in house; host or cells: E. coli
T1 sequence (P04637 94-312, change not shown): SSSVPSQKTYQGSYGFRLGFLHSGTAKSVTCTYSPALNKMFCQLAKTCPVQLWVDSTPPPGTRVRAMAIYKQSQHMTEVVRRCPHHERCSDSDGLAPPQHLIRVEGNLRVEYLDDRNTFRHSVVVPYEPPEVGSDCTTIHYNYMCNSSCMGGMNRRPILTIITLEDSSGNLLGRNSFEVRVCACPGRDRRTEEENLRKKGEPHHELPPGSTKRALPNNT
Assay type: biochemical
Summary of the method: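 Compounds from 4.5 mM DMSO stocks, 3-fold serial dilutions; room-temperature incubations of 15 and 20 min. SC150 = concentration raising DNA binding by 50% over no-compound control.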

Row | SMILES | SC150 (concentration of the compound required to increase the DNA binding activity by 50%)
1 | CN(C)[C@H]1CC[C@@H](Nc2cccc3c2cc(C#CCNc2ccc(S(C)(=O)=O)cc2O)n3CC(F)(F)F)CC1 [Compound 79A, 5-methanesulfonyl-2-{[3-(4-{[(1R,4R)-4-(dimethylamino)cyclohexyl]amino}-1-(2,2,2-trifluoroethyl)-1H-indol-2-yl)prop-2-yn-1-yl]amino}phenol] | + (+ = 0 μM ≤ SC150 < 0.05 μM)
2 | CN(C)[C@H]1CC[C@H](Nc2cccc3c2cc(C#CCNc2ccc(S(C)(=O)=O)cc2O)n3CC(F)(F)F)CC1 [Compound 80A, 5-methanesulfonyl-2-{[3-(4-{[(1S,4S)-4-(dimethylamino)cyclohexyl]amino}-1-(2,2,2-trifluoroethyl)-1H-indol-2-yl)prop-2-yn-1-yl]amino}phenol] | + (+ = 0 μM ≤ SC150 < 0.05 μM)
3 | CN(C)[C@H]1CC[C@H](Nc2cccc3c2cc(C#CCNc2ccc(S(C)(=O)=O)cc2OCC#N)n3CC(F)(F)F)CC1 [Compound 81A, 2-(5-methanesulfonyl-2-{[3-(4-{[(1R,4R)-4-(dimethylamino)cyclohexyl]amino}-1-(2,2,2-trifluoro-ethyl)-1H-indol-2-yl)prop-2-yn-1-yl]amino}phenoxy)acetonitrile] | + (+ = 0 μM ≤ SC150 < 0.05 μM)
4 | CN(C)[C@H]1CC[C@@H](Nc2cccc3c2cc(C#CCNc2ccc(S(C)(=O)=O)cc2OCC#N)n3CC(F)(F)F)CC1 [Compound 82A, 2-(5-methanesulfonyl-2-{[3-(4-{[(1S,4S)-4-(dimethylamino)cyclohexyl]amino}-1-(2,2,2-trifluoro-ethyl)-1H-indol-2-yl)prop-2-yn-1-yl]amino}phenoxy)acetonitrile] | + (+ = 0 μM ≤ SC150 < 0.05 μM)
5 | COc1cc(S(=O)(=O)NC(C)=O)ccc1NCC#Cc1cc2c(N[C@H]3CC[C@H](N(C)C)CC3)cccc2n1CC(F)(F)F [Compound 83A, N-(3-methoxy-4-{[3-(4-{[(1R,4R)-4-(dimethylamino)cyclohexyl]amino}-1-(2,2,2-trifluoroethyl)-1H-indol-2-yl)prop-2-yn-1-yl]amino}benzenesulfonyl)acetamide] | + (+ = 0 μM ≤ SC150 < 0.05 μM)
6 | COc1cc(S(=O)(=O)NC(C)=O)ccc1NCC#Cc1cc2c(N[C@H]3CC[C@@H](N(C)C)CC3)cccc2n1CC(F)(F)F [Compound 84A, N-(3-methoxy-4-{[3-(4-{[(1S,4S)-4-(dimethylamino)cyclohexyl]amino}-1-(2,2,2-trifluoroethyl)-1H-indol-2-yl)prop-2-yn-1-yl]amino}benzenesulfonyl)acetamide] | ++ (++ = 0.05 μM ≤ SC150 < 0.1 μM)

Now from value to compound:

Row | SC150 (concentration of the compound required to increase the DNA binding activity by 50%) | SMILES
7 | + (+ = 0 μM ≤ SC150 < 0.05 μM) | CCC(=O)NS(=O)(=O)c1ccc(NCC#Cc2cc3c(N[C@H]4CC[C@H](N(C)C)CC4)cccc3n2CC(F)(F)F)c(OC)c1 [Compound 85A, N-(3-methoxy-4-{[3-(4-{[(1R,4R)-4-(dimethylamino)cyclohexyl]amino}-1-(2,2,2-trifluoroethyl)-1H-indol-2-yl)prop-2-yn-1-yl]amino}benzenesulfonyl)propanamide]
8 | + (+ = 0 μM ≤ SC150 < 0.05 μM) | CCC(=O)NS(=O)(=O)c1ccc(NCC#Cc2cc3c(N[C@H]4CC[C@@H](N(C)C)CC4)cccc3n2CC(F)(F)F)c(OC)c1 [Compound 86A]
9 | + (+ = 0 μM ≤ SC150 < 0.05 μM) | CN(C)[C@H]1CC[C@H](Nc2cccc3c2cc(C#CCNc2ccc(S(C)(=O)=O)cc2OCCO)n3CC(F)(F)F)CC1 [Compound 87A, 2-(5-methanesulfonyl-2-{[3-(4-{[(1R,4R)-4-(dimethylamino)cyclohexyl]amino}-1-(2,2,2-trifluoroethyl)-1H-indol-2-yl)prop-2-yn-1-yl]amino}phenoxy)ethan-1-ol]
